Experimental data as given in BindingDB's records for doi:10.1016/j.ejmech.2022.114542 (National Institute of Pharmaceutical Education and …, 2022).

Test: Inhibition of ABCG2 efflux pump in multi-drug resistance human HL-60 cells assessed as reversal of daunorubicin sensitivity

## CO[C@@H]1[C@H](N(C)C(=O)c2ccccc2)C[C@H]2O[C@]1(C)n1c3ccccc3c3c4c(c5c6ccccc6n2c5c31)C(=O)NC4 [PKC-412]
  IC50: 4.44 µM
